Test results: PMC12261321, “Inhibitors of the Bacterioferritin Ferredoxin Complex Dysregulate Iron Homeostasis and Kill and Biofilm-Embedded Cells” (ACS Infectious Diseases, 2025)
Values after ≈ are worked out from the molar mass of the structure shown.

Legend:
[1] = Determination of compound aqueous solubility in M63 media; format: physicochemical; conditions: in M63 media at 35 °C
Description: Determination of Compound Aqueous Solubility. Compound stocks (100 mM in DMSO) were prepared from […]
powder and then further diluted with DMSO to prepare 20 mM working solutions, which were diluted as needed […]
in DMSO. 15 µL o f the DMSO solution was then d iluted to a final volume o f 1.0 mL in M63 media. Six solutions […]
were prepared for each compound, each with a distinct concentration and 1.5% DMSO (v/v). 700 µL of each […]
compound solution was transferred to a polystyrene 48-well plate (VWR), followed by acquisition of UV-vis […]
spectra (300 to 700 nm) with the aid of an Epoch 2 microplate reader (B i o Te k ). […]
Following the acquisition of UV-vis spectra, each of the wells in the plate was inspected under a […]
microscope for evidence of precipitation. Evidence of precipitation at any given concentration was determined by observing a shift in the baseline of the UV-vis spectra relative to the blank (M63 media) and/or evidence of visual precipitation with the aid of a micros cope. […]

P. aeruginosa PAO1 = assay: Half maximal inhibitory concentration (IC50), planktonic growth (CFU/mL); format: cell-based; conditions: M63 media, 18 h
Description: Measurement of Half Maximal Inhibitory Concentration (IC50). IC50 values were determined as reported earlier13 with some modifications. Compound stock solutions in DMSO (100 mM and 10 mM) were prepared from powd er. To prep are the cell susp ensions utilized in the measu rements, starter cultures o f P. aeru ginosa wer e diluted to an optical density at 600 nm (OD600) = 0.005 in fresh LB media (5 mL) and then cultured at 37°C and 220 rpm for 4 h prior to diluting to an OD600 = 0.0001 in M63. A small volume of compound stock solution w as further diluted in DMSO to 30 µL and then diluted in M63 cell suspension to a final volume of 2.0 mL. The resultant solution was placed in a well of a 96-well plate and then serially 2-fold diluted in M63 cell suspension to produce 6 distinct com pound concent rations, each with 1.5% DMSO. Th e plate was co ver ed and incubated for 18 h at 35 °C in a Synergy H1 plate reader (Biotek). The resultant cell cultures were serially diluted in PBS and then plated on PI Agar plates (PIA; BD biosciences) for counting viable cells (CFU/mL). The % growth was calculated from the ratio CFU/mL(t reat ed )/CFU/mL(untreated control). To calculate the IC50 values, the % growth was plotted as a function of compound concentration expressed as log[compound] ( µM), and fitted to equation S1 describing the sigmoid- shaped response pattern, 14 where b is the slope factor, max is the upper asymptote (plateau), and min is the lower asymptote. IC 50 values are the average and standard deviation from three independent experiments , each conducted with thr ee techni cal replicates.

[2] = tested on: P. aeruginosa PAO1 biofilm; assay: Pellicle biofilm assay, % survival of biofilm cells; format: cell-based; conditions: for % Survival Biofilm, P. aeruginosa PAO1: 24 h; for biofilm cell death: 27 h old pellicle biofilms treated 24 h
Description: We studied the susceptibility of mature biofilms to treatment with analogues of 4-aminoisoindoline-1,3-dione using biofilms cultured at the […] interface (pellicles) using methodology reported previously. To determine the susceptibility of pellicle biofilms to inhibitors of the Pa Bfr–Bfd complex, we cultured 27 h old biofilms in PI media supplemented with 20 μM Fe, as presented in Experimental Methods. The mature biofilms were transferred onto glass coverslips by touching the pellicle with the surface of the coverslips. The coverslip-adhered biofilms were then exposed to treatment solution consisting of AB media supplemented with 20 μM Fe, 1.5% DMSO, 0.025% HPMC, and 4-aminoisoindoline-1,3-dione derivative or commercial antibiotic for 24 h. The biofilms were then harvested and washed, and the cells were dispersed into sterile PBS by vortexing in the presence of zirconia beads prior to plating and enumerating viable cells (CFU/mL) to calculate % cell survival.
Biofilm Assays. Pellicle biofilms formed by EYF P-expressing P. aeruginosa PAO1 wer e carried ou t as repo rted previously,13 with some modifications. Starter cultures were diluted to OD600 = 0.001 in 4 mL PI media supplement ed with 20 µM Fe , trans ferred to petri dishes (35 x 10 mm) and incubated statically for 27 h at 30 °C.
The pellicles were transferred onto circular microscope glass coverslips (12 mm diameter) by gently allowing the surface of a coverslip to contact the pellicle. Th e biofilm- attached coverslip was washed (3 x) by floating it on top of PBS with the biofilm exposed to the liquid and then placed on top of 1.5 mL AB challenge media in a well of a 12-well microplate, with the biofilm exposed to the media at 30 °C for 24 h. AB challenge media is AB minimal media supplemented with 1.5% DMSO, 0.025% HPMC, 20 μ M Fe, and 4-aminoisoindoline-1,3- dione […]
The 4-aminoisoindoline-1,3- dione derivative solutions were prep ared from powder as 10 mM st ock solutions in DMSO and then diluted in AB challenge media to the appropriate concentrations. Following the 24 h challenge, planktonic and loosely attached cells were washed 3 times by floating the coverslip-attached biofilms with the biofilm facing down into a petri d ish (60 x 15 mm) containing 15 mL PBS, and incubating for 5 min. The biofilm was removed from the coversli p and the cells releas ed f rom the extra cel lular matrix by placing th e cov erslip-attach ed biofi lm in a 50 mL conical tub e containing a 2-mL sup ension of zirconia beads (0.1 mm diam eter, BiosSpec Produ cts), 10 mL PBS, 1 mM MgSO4, 20 µg/mL alginate lyase and 40 µg/mL DNAse. The mixture was incubated for three min at room temperature, and then vigorously vortexed for four min. Following sedimentation of the zirconia beads, a 100 μ L aliquot was utilized for serial dilution in PBS and plating on PIA plates for viable cell enumeration (CFU/mL). […]

[3] = biofilm challenged with 50 µM compound
[4] = M63 media with 1.5% DMSO, 35 °C, aqueous buffer, kinetic from dmso stock
[5] = Pseudomonas aeruginosa, PAO1, planktonic cells
[6] = biofilm challenged with 30 µM compound
[7] = biofilm challenged with 20 µM compound

Structure (SMILES)	solubility at 4 h [1]	IC50 (P. aeruginosa PAO1; planktonic cells)	% Survival Biofilm, P. aeruginosa PAO1 [2, 3]	also measured
O=C1NC(=O)c2c(NCc3cc(Br)c(O)cc3O)cccc21 [SB-16-137]	80 µM (≈ 29.1 µg/mL)	37 ± 4 µM	78 ± 21%	–
O=C1NC(=O)c2c(NCc3cc(F)ccc3O)cccc21 [JAG-5-7]	–	–	85 ± 16%	solubility at 4 h [1, 4]: 180 µM (≈ 51.5 µg/mL); IC50 (P. aeruginosa PAO1; [5]): 83 ± 19 µM
O=C1NC(=O)c2c(NCc3cc(Br)c(F)cc3O)cccc21 [SB-16-112]	30 µM (≈ 11 µg/mL)	14 ± 3 µM	–	% Survival Biofilm, P. aeruginosa PAO1 [2, 6]: 15 ± 0.7%
O=C1NC(=O)c2c(NCc3cccc(Br)c3O)cccc21 [EB-5-73]	40 µM (≈ 13.9 µg/mL)	–	–	IC50, P. aeruginosa PAO1 (P. aeruginosa PAO1; planktonic cells): Not active; % Survival Biofilm, P. aeruginosa PAO1 [2, 6]: 78 ± 14%
O=C1NC(=O)c2c(NCc3ccc(Br)cc3O)cccc21 [EB-5-61]	60 µM (≈ 20.8 µg/mL)	24 ± 2 µM	8 ± 2%	–
O=C1NC(=O)c2c(NCc3c(O)cccc3Cl)cccc21 [KM-5-29]	60 µM (≈ 18.2 µg/mL)	36 ± 5 µM	50 ± 7%	–
O=C1NC(=O)c2c(NCc3cccc(Cl)c3O)cccc21 [KM-5-30]	80 µM (≈ 24.2 µg/mL)	57 ± 2 µM	72 ± 11%	–
O=C1NC(=O)c2c(NCc3ccccc3O)cccc21 [Analog 11, 4-((2-Hydroxybenzyl)amino)isoindoline-1,3-dione]	–	–	87 ± 6%	solubility at 4 h [1, 4]: 200 µM (≈ 53.7 µg/mL); IC50 (P. aeruginosa PAO1; [5]): 178 ± 14 µM
Cc1ccc(CNc2cccc3c2C(=O)NC3=O)c(O)c1 [EB-5-69]	80 µM (≈ 22.6 µg/mL)	–	64 ± 1%	IC50, P. aeruginosa PAO1 (P. aeruginosa PAO1; planktonic cells): Not active
Cc1cc(CNc2cccc3c2C(=O)NC3=O)c(O)cc1Br [SB-16-183]	20 µM (≈ 7.22 µg/mL)	13 ± 1 µM	–	% Survival Biofilm, P. aeruginosa PAO1 [2, 7]: 43 ± 3%
Cc1cccc(CNc2cccc3c2C(=O)NC3=O)c1O [EB-5-70]	100 µM (≈ 28.2 µg/mL)	–	105 ± 2%	IC50, P. aeruginosa PAO1 (P. aeruginosa PAO1; planktonic cells): Not active
O=C1NC(=O)c2c(NCc3cc(Cl)c(O)cc3O)cccc21 [SB-16-160]	80 µM (≈ 25.5 µg/mL)	45 ± 6 µM	Not active	–
O=C1NC(=O)c2c(NCc3c(O)cccc3Br)cccc21 [EB-5-72]	60 µM (≈ 20.8 µg/mL)	32 ± 5 µM	45 ± 0.4%	–
O=C1NC(=O)c2c(NCc3cccc4c3CCN4)cccc21 [SB-17-140]	–	–	Not active	solubility at 4 h [1, 4]: 100 µM (≈ 29.3 µg/mL); IC50, P. aeruginosa PAO1 (P. aeruginosa PAO1; planktonic cells): Not active
O=C1NC(=O)c2c(NCc3cc(Cl)ccc3O)cccc21 [KM-5-25, 4-((5-Chloro-2-hydroxybenzyl)amino)isoindoline-1,3-dione]	80 µM (≈ 24.2 µg/mL)	31 ± 7 µM	17 ± 6%	biofilm cell death [2]: concentration-dependent biofilm cell death
O=C1NC(=O)c2c(NCc3cc(F)ccc3O)ccc(Br)c21 [SB-16-67]	40 µM (≈ 14.6 µg/mL)	> 40 µM	–	–
O=C1NC(=O)c2c(NCc3cc(Br)ccc3O)cccc21 [KM-5-35, 4-((5-Bromo-2-hydroxybenzyl)amino)isoindoline-1,3-dione]	60 µM (≈ 20.8 µg/mL)	27 ± 3 µM	10 ± 4%	biofilm cell death [2]: concentration-dependent biofilm cell death
Cc1cc(Br)cc(CNc2cccc3c2C(=O)NC3=O)c1O [SB-16-106]	30 µM (≈ 10.8 µg/mL)	14 ± 4 µM	–	% Survival Biofilm, P. aeruginosa PAO1 [2, 6]: 42 ± 9%
CC(C)(C)c1ccc(O)c(CNc2cccc3c2C(=O)NC3=O)c1 [SB-16-53]	–	–	–	solubility at 4 h [1, 4]: 30 µM (≈ 9.73 µg/mL); IC50 (P. aeruginosa PAO1; [5]): 12 ± 6 µM; % Survival Biofilm, P. aeruginosa PAO1 [2, 6]: 48 ± 10%
O=C1NC(=O)c2c(NCc3cc(Br)cc(F)c3O)cccc21 [SB-16-118]	40 µM (≈ 14.6 µg/mL)	25 ± 8 µM	–	% Survival Biofilm, P. aeruginosa PAO1 ([2]; biofilm challenged with 40 µM compound): 13 ± 2%
O=C1NC(=O)c2c(NCc3cc(Cl)ccc3O)ccc(Br)c21 [SB-16-51]	20 µM (≈ 7.63 µg/mL)	18 ± 3 µM	–	% Survival Biofilm, P. aeruginosa PAO1 [2, 7]: 53 ± 9%
O=C1NC(=O)c2c(NCc3ccc4c(c3)COC4)cccc21 [SB-17-80]	20 µM (≈ 5.89 µg/mL)	–	–	IC50, P. aeruginosa PAO1 (P. aeruginosa PAO1; planktonic cells): Not active; % Survival Biofilm, P. aeruginosa PAO1 [2, 7]: Not active
O=C1NC(=O)c2c(NCc3cc(Br)ccc3O)ccc(Cl)c21 [SB-16-124]	20 µM (≈ 7.63 µg/mL)	17 ± 2 µM	–	% Survival Biofilm, P. aeruginosa PAO1 [2, 7]: Not active
O=C1NC(=O)c2c(NCc3cccc(F)c3O)cccc21 [EB-5-80]	100 µM (≈ 28.6 µg/mL)	–	106 ± 23%	IC50, P. aeruginosa PAO1 (P. aeruginosa PAO1; planktonic cells): Not active
O=C1NC(=O)c2c(NCc3c(O)cccc3F)cccc21 [EB-5-71]	150 µM (≈ 42.9 µg/mL)	80 ± 10 µM	52 ± 10%	–
O=C1NC(=O)c2c(NCc3cc(Br)cc(O)c3O)cccc21 [SB-16-136]	60 µM (≈ 21.8 µg/mL)	20 ± 5 µM	63 ± 2%	–
O=C1NC(=O)c2c(NCc3cc(Cl)cc(O)c3O)cccc21 [SB-16-168]	–	–	Not active	solubility at 4 h [1, 4]: 40 µM (≈ 12.7 µg/mL); IC50 (P. aeruginosa PAO1; [5]): 15 ± 7 µM
O=C1NC(=O)c2c(NCc3cc(Br)cc(O)c3O)ccc(Br)c21 [SB-16-250]	20 µM (≈ 8.84 µg/mL)	5 ± 2 µM	–	% Survival Biofilm, P. aeruginosa PAO1 [2, 7]: Not active
Cc1cc(Cl)cc(CNc2cccc3c2C(=O)NC3=O)c1O [SB-16-156]	40 µM (≈ 12.7 µg/mL)	21 ± 5 µM	–	% Survival Biofilm, P. aeruginosa PAO1 [2, 6]: 44 ± 18%
